Measured values as given in patent publication US6537545B1, “Use of corneal hardening agents in enzymeorthokeratology” (ISTA Pharmaceuticals, Inc., priority 1998, dated 2003).

How the values were obtained:
Type in all cases: in vivo
[1] = tested on: eyes of non-sighted human patients; experiment: Safety of enzymatic corneaplasty with hyaluronidase and topical 3% glyceraldehyde in two non-sighted human patients (Example 4)
Protocol: The two patients (Nos. 1108 and 1105) each received an intrastromal injection of 500 IU of hyaluronidase. […] Patient 1108 wore the lenses for 21 days while patient 1105 wore the lenses for 50 days.
Patient 1108 was treated according to the protocol outline above. After the 21 day lens wearing period had expired, the patient was instructed to apply two (2) drops of the 3% glyceraldehyde solution four times per day. The application of 3% glyceraldehyde continued for thirty-six (36) days after lens wear had ceased. Following termination of the 3% glyceraldehyde treatment, the patient was examined occasionally and the final examination was administered 126 days following the cessation of glyceraldehyde treatment.
This patient was treated as described above and wore the RGP lenses for 50 days. Unlike patient 1108, patient 1105 was treated with the 3% glyceraldehyde solution for one (1) month while the patient was wearing the RGP contact lenses. The 3% glyceraldehyde solution was applied four times per day for a total period of 43 days.

[2] = tested on: eyes of non-sighted human patients; experiment: Safety of non-enzymatic corneaplasty and topical 3% glyceraldehyde in five non-sighted human patients (Example 5); settings: lenses 7 days, then 3% glyceraldehyde plus lenses 28 days, only minor incidents of SPK
Protocol: In this study five non-sighted patients with good corneas were treated with contact lenses and a 3% glyceraldehyde solution to determine the safety of this procedure. Here, the patients were fitted with and wore contact lenses for seven (7) days. Following this period a 3% glyceraldehyde solution (described above) was applied to the eyes and the contact lens wear continued for twenty-eight (28) days. After this period both the contact lens wear and the glyceraldehyde treatment ceased.
The patients were individually examined for the effects of the treatments following removal of the lenses and cessation of the glyceraldehyde treatment. The first examination was on the last day of treatment, and five (5) subsequent examinations were administered over a one month period.

[3] = tested on: eyes of myopic human subjects; experiment: Mild myopia study, group I: 50 IU hyaluronidase, corrective lenses, 3% glyceraldehyde (Example 9)
From the text: Given the favorable results obtained in Example 8, an additional study was undertaken to test the safety and efficacy of the method of the present invention using a larger group of subjects. In this study, a group of subjects were selected and randomly separated into three test groups to test the safety and efficacy of using hyaluronidase and a glyceraldehyde solution for treating subjects with sub-optimal visual acuity. Groups one and two received an intrastromal injection of hyaluronidase (50 and 500 IU, respectively), while group three received a control injection of saline.
Following a two week incubation period after the injection, the three groups were fitted with corrective lenses to optimize the visual acuity of the subjects. The corrective lenses were left in place for a period of time sufficient to alter the shape of the subjects' eyes so as to achieve an optimal visual acuity. This period of time was generally 2 days in length. Once an acceptable visual acuity was achieved, the subjects in the three groups received a topical 3% glyceraldehyde solution in the form of ophthalmic drops four times per day while wearing the corrective lenses. The glyceraldehyde treatment was generally administered for one month. Lens wear occurred from 8 to 12 hours during the day.
At the end of the treatment period both the lens wear and the glyceraldehyde solution administration was terminated. The general health and visual acuity of the subjects was monitored from 3 to 5 months following treatment termination.
Before beginning the experimental protocol, test subjects were examined initially to establish a baseline from which the future results of the treatment were compared. For each subject a medical history was taken and a detailed examination of the eyes was also performed. The eyes of each subject were tested to determine: refraction cell count, intraocular pressure (IOP), pachymetry, corneal topography and corneal elasticity. A slit-lamp examination was also performed to establish the health of the eye. Also, the presence of any general or ocular discomfort of the subjects was noted.
Following the establishment of a baseline reading, group 1 subjects were administered a single intrastromal injection of 50 IU hyaluronidase prior to the orthokeratology treatment. Following 14 days of incubation, the subjects were fitted with corrective contact lenses for overnight wear. Subjects wore the corrective lenses night and day for a period of two (2) to seven (7) days or until visual 20/20 visual acuity was achieved. Subjects achieving an acceptable visual acuity (approximately 20/20) received an application of the topical 3% glyceraldehyde solution ophthalmic drops four times per day (8:00, 12:00, 16:00, and 20:00) for a period of 1 month in conjunction with daytime lens wear for stabilization. Lens wear lasted for 8 to 12 hours per day. The subjects were examined periodically during the glyceraldehyde treatment to monitor changes in the health of the treated eyes.
At the end of the treatment period, the stabilizing lens were removed and the administration of the 3% glyceraldehyde solution was terminated. Following termination of the treatment, the subjects were examined immediately after treatment was terminated, once a week for the first four weeks after termination, and then monthly to measure changes in the visual acuity of the treated eyes. The health of the eye was also monitored. Sequelae characterized by the appearance or worsening of serious ocular symptoms or slit-lamp findings observed during these examinations was assessed. The proportions of subjects with such findings were analyzed.

## O=CC(O)CO (centres unmarked) [glyceraldehyde]
[1]; patient 1105
  level of SPK after termination of lens wear while continuing 3% glyceraldehyde: observed to decrease
[1]; patient 1105, 500 IU hyaluronidase, RGP lenses 50 days, drops four times per day, 43 days
  level of superficial punctate keratopathy (SPK) during lens wear and 3% glyceraldehyde application: not observed to increase
[1]; patient 1105, 98 days post cessation of glyceraldehyde treatment
  appearance of corneas at follow-up: appeared normal
[1]; patient 1105, within 48 hours of ceasing the 43 day glyceraldehyde treatment
  appearance of corneas under slit-lamp biomicroscopy: appeared normal under slit-lamp biomicroscopy and were free of any SPK
[1]; patient 1108, 500 IU hyaluronidase, lenses 21 days, then 3% glyceraldehyde 2 drops four times per day, 36 days
  effects on the stroma or the endothelial cells during glyceraldehyde treatment: did not indicate any deleterious effects
[1]; patient 1108, after the 36 day protocol up to final examination 126 days after cessation
  adverse reactions after completion of treatment: Nor were there any adverse reactions observed
[1]; two non-sighted human patients
  overall observable negative results: no observable negative results
[2]
  corneal findings in all patients: Normal corneas
[3]; glyceraldehyde treatment with injection of 50 IU of hyaluronidase
  overall effect on correction of visual acuity: effective in facilitating the correction
[3]; subject 001, 5-month follow up, baseline 20/80
  visual acuity at follow-up after end of treatment: 20/40
[3]; subject 002, 4-month follow-up, baseline 20/300
  visual acuity at follow-up after end of treatment: 20/125
[3]; subject 007, 3-month follow-up, baseline 20/200
  visual acuity at follow-up after end of treatment: 20/50
[3]; subject 009, 3-month follow-up, baseline 20/200
  visual acuity at follow-up after end of treatment: 20/63
[3]; subject 010R, time not stated, baseline 20/80
  visual acuity at follow-up: 20/20
[3]; subject 015, 3-month follow-up, baseline 20/80
  visual acuity at follow-up after end of treatment: 20/25
[3]; subject 022R, 3-week followup, baseline 20/62
  visual acuity at follow-up: 20/80
[3]; subject 024R, time not stated, baseline 20/100
  visual acuity at follow-up: 20/40
[3]; subject 028, 2-month point, baseline 20/300
  visual acuity at follow-up: 20/125
[3]; subject 029, 2-month point, baseline 20/200
  visual acuity at follow-up: 20/40
[3]; subject 033, 2-month point, baseline 20/300
  visual acuity at follow-up: 20/125
